In US20110098177A1, “METHODS AND COMPOSITIONS OF PLANT MICRONUTRIENTS” (NOVUS INTERNATIONAL INC., priority 2006, published 2011):
Like-named read-outs stand apart in the source and are kept apart here.

Tests used:
Type in all cases: in vivo
Florida-47 tomato = details: for Tomato toxicity: 1 week after treatment, scale 0 = no visible injury, 10 = plant death
Outline: (§1)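 Florida-47 tomato and Aristotle bell pepper transplants in 2-gal pots with low-nutrient medium (pH 5.36), drip-irrigated; products at three rates in deionized water plus non-ionic surfactant sprayed on newly matured leaves at 3 and 7 WAT. Toxicity scored at 4 WAT (0=no damage, 10=death); foliar tissue analysed at 6 WAT; marketable fruit harvested 4 times (tomato).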

Aristotle bell pepper = details: 1 week after treatment, scale 0 = no visible injury, 10 = plant death
Outline: as §1

Tygress tomato plants = assay: Foliar nutrient concentration at 7 WAT, greenhouse tomato spring 2009 (Examples 13-15); details: tomato leaves 1 week after treatment
Outline: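 Greenhouse 'Tygress' tomatoes in micronutrient-deficient medium received foliar treatments at 6 WAT (200 mL/plant, deionized water plus non-ionic surfactant). Newest non-applied leaves sampled at 7 WAT and analysed for N, P, K, Mg, Ca, B, Zn, Mn, Fe and Cu. Randomized complete block design with 6 replications; means separated by LSD at 5%.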

[1] = test system: soybean plants (Asgrow 1102); assay: Soybean seed protein and oil content (Examples 11-12); details: in %
Protocol: The following experiments were performed on soybean plants growing in open-field plots during the summer and fall of 2008 at two production fields in West Central Minnesota. […] Trial design was a randomized complete block with 4 replications. Each plot measured 10' by 30' and consisted of five 22'' rows. Although all five rows of each plot were treated, only the center three rows (25' in length) of each plot were machine harvested. The two fields selected for these studies had historical Iron Deficiency Chlorosis (IDC) issues. The two field sites were planted by farmers with elite Roundup Ready commodity type soybean varieties with IDC tolerance (Asgrow 1102, Monsanto Corp.). […] BIOX-M was applied at a rate of 1.12 kg Mn/ha. […] All V4 treatments were applied in 10 gallons per acre of water with a backpack sprayer with a hand boom designed to “band” apply product directly to the plant row. Three nozzles with ConeJet TXVS-2 tips were oriented on either side and over the top of each row. This maximized the applied product to the plant tissue itself and minimized application of product to the soil surface. […] The V6 treatments (where applicable) were applied in 20 gallons per acre of water to increase the suspension of the BIOX products. Soybean seed was harvested after soybean maturity was reached (3 October at […], and 17 Oct. 2008 at Foxhome) and seed yields for each experimental treatment group were determined. In addition, seed samples from each treatment were dried to 13% moisture content, then analyzed for protein and oil content.

Compound: CSCCC(O)C(=O)[O-].CSCCC(O)C(=O)[O-].[Cu+2] (stereo not shown) [BIOX-Cu, Cu-HMTBA]
- Tomato toxicity (Florida-47 tomato; High rate): 0
- Tomato toxicity (Florida-47 tomato; Low rate): 0
- Tomato toxicity (Florida-47 tomato; Medium rate): 0
- Foliar injury (in words) (Florida-47 tomato; copper concentration of 0.004% to 0.061% by weight, tomato and bell pepper stated together): no foliar injury
- Pepper toxicity (Aristotle bell pepper; High rate): 0
- Pepper toxicity (Aristotle bell pepper; Low rate): 0
- Pepper toxicity (Aristotle bell pepper; Medium rate): 0
- Foliar Cu concentration (Tygress tomato plants; Cu 0.14 lb/acre): 72 ppm
- Foliar Cu concentration (Tygress tomato plants; Cu 0.28 lb/acre): 91 ppm
- Foliar Cu concentration (Tygress tomato plants; Cu 0.46 lb/acre): 208 ppm
- Foliar Cu concentration (Tygress tomato plants; Cu 0.55 lb/acre): 397 ppm

Compound: CSCCC(O)C(=O)[O-].CSCCC(O)C(=O)[O-].[Zn+2] (stereo not shown) [BIOX-Z, Zn-HMTBA]
- Tomato toxicity (Florida-47 tomato; High rate): 0
- Tomato toxicity (Florida-47 tomato; Low rate): 0
- Tomato toxicity (Florida-47 tomato; Medium rate): 0
- Pepper toxicity (Aristotle bell pepper; High rate): 0
- Pepper toxicity (Aristotle bell pepper; Low rate): 0
- Pepper toxicity (Aristotle bell pepper; Medium rate): 0

Compound: CSCCC(O)C(=O)[O-].CSCCC(O)C(=O)[O-].[Mn+2] (stereo not shown) [BIOX-M, Mn-HMTBA]
- Tomato toxicity (Florida-47 tomato; High rate): 0
- Tomato toxicity (Florida-47 tomato; Low rate): 0
- Tomato toxicity (Florida-47 tomato; Medium rate): 0
- Toxic effect on the plant (in words) (Florida-47 tomato; manganese concentration of 0.015% to 0.124% by weight, both crops): no toxic effect
- Pepper toxicity (Aristotle bell pepper; High rate): 0
- Pepper toxicity (Aristotle bell pepper; Low rate): 0
- Pepper toxicity (Aristotle bell pepper; Medium rate): 0
- Oil content (13% moisture) ([1]; 7.0 kg/ha, V4, Foxhome): 18.28
- Protein content (13% moisture) ([1]; 7.0 kg/ha, V4, Foxhome): 32.90
- Oil content (13% moisture) ([1]; 7.0 kg/ha, V4, Renville): 19.97
- Protein content (13% moisture) ([1]; 7.0 kg/ha, V4, Renville): 31.97

Compound: Fe-HMTBA [BIOX-Fe]
- Oil content (13% moisture) ([1]; 0.558 kg/ha, V4, V6, Foxhome): 18.42
- Protein content (13% moisture) ([1]; 0.558 kg/ha, V4, V6, Foxhome): 32.73
- Oil content (13% moisture) ([1]; 0.558 kg/ha, V4, V6, Renville): 20.16
- Protein content (13% moisture) ([1]; 0.558 kg/ha, V4, V6, Renville): 32.04
- Oil content (13% moisture) ([1]; 0.558 kg/ha, V4, Foxhome): 18.46
- Protein content (13% moisture) ([1]; 0.558 kg/ha, V4, Foxhome): 32.60
- Oil content (13% moisture) ([1]; 0.558 kg/ha, V4, Renville): 20.12
- Protein content (13% moisture) ([1]; 0.558 kg/ha, V4, Renville): 31.93
- Oil content (13% moisture) ([1]; 1.12 kg/ha, V4, V6, Foxhome): 18.40
- Protein content (13% moisture) ([1]; 1.12 kg/ha, V4, V6, Foxhome): 32.68
- Oil content (13% moisture) ([1]; 1.12 kg/ha, V4, V6, Renville): 20.10
- Protein content (13% moisture) ([1]; 1.12 kg/ha, V4, V6, Renville): 32.36
- Oil content (13% moisture) ([1]; 1.12 kg/ha, V4, Foxhome): 18.48
- Protein content (13% moisture) ([1]; 1.12 kg/ha, V4, Foxhome): 32.47
- Oil content (13% moisture) ([1]; 1.12 kg/ha, V4, Renville): 20.28
- Protein content (13% moisture) ([1]; 1.12 kg/ha, V4, Renville): 32.23
- Foliar Fe concentration (Tygress tomato plants; Fe 0.28 lb/acre): 249 ppm
- Foliar Fe concentration (Tygress tomato plants; Fe 0.57 lb/acre): 388 ppm
- Foliar Fe concentration (Tygress tomato plants; Fe 1.12 lb/acre): 517 ppm
- Foliar Fe concentration (Tygress tomato plants; Fe 1.74 lb/acre): 453 ppm
- Foliar Fe concentration (Tygress tomato plants; Fe 2.3 lb/acre): 383 ppm

Compound: EDTA chelated zinc [BIOX-EDZ]
- Tomato toxicity (Florida-47 tomato; High rate): 0
- Tomato toxicity (Florida-47 tomato; Low rate): 0
- Tomato toxicity (Florida-47 tomato; Medium rate): 0
- Pepper toxicity (Aristotle bell pepper; High rate): 0
- Pepper toxicity (Aristotle bell pepper; Low rate): 0
- Pepper toxicity (Aristotle bell pepper; Medium rate): 0
